Values of other authors as cited in patent publication US20200352795A1, “WETNESS INDICATOR WITH HARDENERS” (SAVARE' I.C. S.r.l., priority 2018, published 2020).

Conditions: for pKa: Table 1

SMILES	pKa of pH-indicator colorant	pKa
O=C1OC2(c3cc(Br)c(O)c(Br)c3Oc3c2cc(Br)c(O)c3Br)c2c(Cl)c(Cl)c(Cl)c(Cl)c21 [Acid Phloxine B]	~2.9	2.9
Cc1cc(C2(c3cc(C)c(O)c(Br)c3)OS(=O)(=O)c3ccccc32)cc(Br)c1O [Bromocresol Purple Free Acid]	6.3	–
Cc1c(C2(c3cc(Br)c(O)c(Br)c3C)OS(=O)(=O)c3ccccc32)cc(Br)c(O)c1Br [Bromocresol Green Free Acid]	–	4.8
O=S1(=O)OC(c2cc(Br)c(O)c(Br)c2)(c2cc(Br)c(O)c(Br)c2)c2ccccc21 [Bromophenol Blue Free Acid]	~4.0	–
O=S(=O)(O)c1ccc(N=C2C=CC(=C(c3ccc(Nc4ccc(S(=O)(=O)O)cc4)cc3)c3ccc(Nc4ccc(S(=O)(=O)O)cc4)cc3)C=C2)cc1 [Aniline Blue (also known as Methyl Blue), Aniline Blue]	–	11.7
